Active and inactive are the calls of the source. The rule behind the calls is not given here.
Assays:
Assay in all cases: LYPLA1 and LYPLA2 inhibitors, biochemical, gel-based ABPP, fluorescence, recombinant and endogenous enzyme (AID 493105)
rhLYPLA2 = conditions: fluorescent probe labeling, membrane fraction, at 20 µM, hits give high values
emLYPLA2 = conditions: fluorescent probe labeling, membrane fraction, at 20 µM, hits give high values
emLYPLA1 = conditions: fluorescent probe labeling, membrane fraction, at 20 µM, hits give high values
rhLYPLA1 = conditions: fluorescent probe labeling, soluble fraction, at 20 µM, hits give high values

inhibition (rhLYPLA2) | inhibition (emLYPLA2) | inhibition (emLYPLA1) | inhibition (rhLYPLA1) | SMILES
13% (inactive) | 8% (inactive) | 0% (inactive) | 0% (inactive) | O=C(C1CCC(Cn2c(=S)[nH]c3ccccc3c2=O)CC1)N1CCN(c2ccccc2)CC1 (configuration not stated)
2% (inactive) | 0% (inactive) | 4% (inactive) | 0% (inactive) | O=C1N=C(N2CCN(Cc3ccccc3)CC2)S/C1=C/c1cccs1
30% | 46% | 0% (inactive) | 31% | COc1ccc(-n2nc(C(=O)NCC(=O)N3CCN(Cc4ccccc4)CC3)c3ccccc3c2=O)c(OC)c1
15% (inactive) | 31% | 10% (inactive) | 44% | COc1ccc(C(=O)NC(=S)Nc2ccc(N3CCN(C(C)=O)CC3)cc2)cc1[N+](=O)[O-]
0% (inactive) | 0% (inactive) | 0% (inactive) | 0% (inactive) | O=C(CCCCn1c(=O)[nH]c2ccccc2c1=O)N1CCN(c2cccc(C(F)(F)F)c2)CC1
5% (inactive) | 6% (inactive) | 8% (inactive) | 0% (inactive) | CCC(=O)N1CCN(c2ccc(NC(=S)NC(=O)c3cccc([N+](=O)[O-])c3)cc2)CC1
0% (inactive) | 0% (inactive) | 0% (inactive) | 0% (inactive) | O=[N+]([O-])c1cccc(/C=N/N2CCN(Cc3ccc(Cl)cc3)CC2)c1
0% (inactive) | 3% (inactive) | 0% (inactive) | 0% (inactive) | O=C(CCCc1ccccc1)N1CCN(c2ccc([N+](=O)[O-])cc2)CC1
0% (inactive) | 0% (inactive) | 0% (inactive) | 0% (inactive) | OC(COc1ccc(Cl)cc1)CN1CCN(c2cccc(Cl)c2)CC1 (configuration not stated)
0% (inactive) | 4% (inactive) | 4% (inactive) | 31% | Cc1ccc(C)c(C(=O)CCC(=O)N2CCN(c3cccc(C(F)(F)F)c3)CC2)c1
5% (inactive) | 12% (inactive) | 0% (inactive) | 20% (inactive) | CC(NC(=O)c1ccco1)C(=O)N1CCN(c2cccc(C(F)(F)F)c2)CC1 (configuration not stated)
26% (inactive) | 34% | 15% (inactive) | 0% (inactive) | COc1ccc(N2CCN(C(=O)CNC(=O)c3cn(-c4ccccc4OC)c(=O)c4ccccc34)CC2)cc1
2% (inactive) | 0% (inactive) | 13% (inactive) | 0% (inactive) | CC(=O)c1ccc(N2CCN(C(=O)c3ccc(C(=O)c4ccccc4)cc3)CC2)cc1
0% (inactive) | 9% (inactive) | 0% (inactive) | 0% (inactive) | O=C(COc1ccc(Cl)cc1)N1CCN(c2cccc(C(F)(F)F)c2)CC1

Continued, molecule first:

SMILES | inhibition (rhLYPLA2) | inhibition (emLYPLA2) | inhibition (emLYPLA1) | inhibition (rhLYPLA1)
COc1ccc2c(c1)C(=O)[C@H](O)[C@@H](c1ccc(OC)c(Br)c1)O2 | 51% | 73% | 0% (inactive) | 0% (inactive)
COc1cccc(N=C2NC(=O)/C(=C/c3cc([N+](=O)[O-])ccc3O)S2)c1 | 0% (inactive) | 6% (inactive) | 20% (inactive) | 0% (inactive)
COc1cc(COc2ccc3c(C)c(Cc4ccccc4)c(=O)oc3c2)cc(OC)c1OC | 0% (inactive) | 4% (inactive) | 0% (inactive) | 0% (inactive)
Cc1nn(-c2ccccc2)c(N2CCCC2)c1/C=N/Nc1ccc(S(N)(=O)=O)cc1[N+](=O)[O-] | 0% (inactive) | 1% (inactive) | 0% (inactive) | 7% (inactive)
COc1ccc(OC)c(NC(=O)C2CCC(CNc3c(N4CCC(C)CC4)c(=O)c3=O)CC2)c1 (configuration not stated) | 7% (inactive) | 3% (inactive) | 2% (inactive) | 27% (inactive)
N#Cc1c(NC(=O)CSc2nc(N)cc(=O)[nH]2)sc2c1CCCC2 | 3% (inactive) | 0% (inactive) | 0% (inactive) | 26% (inactive)
COc1ccc(-n2nc(C(=O)NCC(=O)N3CCN(Cc4ccc5c(c4)OCO5)CC3)c3ccccc3c2=O)cc1OC | 50% | 68% | 8% (inactive) | 35%
O=c1ccc2ccc(Oc3ccc([N+](=O)[O-])cc3Cl)cc2o1 | 6% (inactive) | 17% (inactive) | 0% (inactive) | 0% (inactive)
Cc1ccc(OCC(=O)N2CCN(C(=O)CCC3CCCC3)CC2)cc1 | 3% (inactive) | 14% (inactive) | 14% (inactive) | 43%
CC1CN(Cc2cc(=O)oc3cc(O)c(Cl)cc23)CC(C)O1 (configuration not stated) | 3% (inactive) | 0% (inactive) | 0% (inactive) | 0% (inactive)
CCOc1cc(CN2CCCC(C(=O)c3cccc(C(F)(F)F)c3)C2)ccc1O (configuration not stated) | 0% (inactive) | 0% (inactive) | 0% (inactive) | 2% (inactive)
CC(=O)N1CCC2(CC1)C/C(=N\NC(=S)Nc1ccc(C)cc1)c1cc(O)ccc1O2 | 0% (inactive) | 1% (inactive) | 0% (inactive) | 3% (inactive)
CCC(=C/c1sc2ccc3ccccc3c2[n+]1C)/C=C1\Sc2ccc3ccccc3c2N1C | 2% (inactive) | 7% (inactive) | 1% (inactive) | 0% (inactive)
Cc1c(Br)c([N+](=O)[O-])nn1CC(=O)Nc1ccc(Cc2ccncc2)cc1 | 0% (inactive) | 8% (inactive) | 8% (inactive) | 0% (inactive)
O=C(N1CCOCC1)n1nnc2ccccc21 | 76% | 88% | 99% | 98%
CC1CC(C)CN(S(=O)(=O)c2ccc3c(c2)CC(C)N3C(=O)C2CCC2)C1 (configuration not stated) | 0% (inactive) | 0% (inactive) | 0% (inactive) | 9% (inactive)
COc1ccccc1-n1cc(C(=O)NCC(=O)N2CCN(Cc3ccccc3)CC2)c2ccccc2c1=O | 39% | 52% | 1% (inactive) | 0% (inactive)
NS(=O)(=O)c1ccc(CCNC(=O)c2cc([N+](=O)[O-])ccc2N2CCCCC2)cc1 | 0% (inactive) | 0% (inactive) | 0% (inactive) | 49%
N#Cc1c(NC(=O)CN2CCN(C(=O)c3ccco3)CC2)sc2c1CCCCC2 | 0% (inactive) | 6% (inactive) | 0% (inactive) | 20% (inactive)

Reference: PubChem BioAssay AID493105 (The Scripps Research Institute Molecular Screening Center, 2011)
